In PubChem BioAssay (NCI):
Several values for one entry are separate records, joined by “and”; a condition that tells them apart may be missing. Equal values may be shown once.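 Briefly, cells in 96-well plates were exposed to five compound concentrations for 48 h, and endpoints were estimated by linear interpolation. The concentration for 50% growth inhibition is given as GI50. TGI denotes the concentration required for complete inhibition of growth.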

Key:
Test in all cases: growth of human tumour cells (NCI), 48 h
MALME-3M melanoma = test system: MALME-3M melanoma
HL-60(TB) leukemia = test system: HL-60(TB) leukemia
SK-MEL-5 melanoma = test system: SK-MEL-5 melanoma
UACC-62 melanoma = test system: UACC-62 melanoma
IGROV1 ovarian = test system: IGROV1 ovarian
A498 renal = test system: A498 renal
HCT-15 colon = test system: HCT-15 colon
SR leukemia = test system: SR leukemia
OVCAR-5 ovarian = test system: OVCAR-5 ovarian
NCI/ADR-RES ovarian = test system: NCI/ADR-RES ovarian

Row | Compound | GI50 (MALME-3M melanoma) | TGI (MALME-3M melanoma) | GI50 (HL-60(TB) leukemia) | TGI (HL-60(TB) leukemia) | GI50 (SK-MEL-5 melanoma) | TGI (SK-MEL-5 melanoma) | GI50 (UACC-62 melanoma) | TGI (UACC-62 melanoma) | GI50 (IGROV1 ovarian) | TGI (IGROV1 ovarian) | GI50 (A498 renal) | TGI (A498 renal) | GI50 (HCT-15 colon) | TGI (HCT-15 colon) | GI50 (SR leukemia) | TGI (SR leukemia) | GI50 (OVCAR-5 ovarian) | TGI (OVCAR-5 ovarian) | GI50 (NCI/ADR-RES ovarian) | TGI (NCI/ADR-RES ovarian)
1 | O=C(/C=C/c1cccnc1)c1ccccc1 | 15.7 µM | 35.9 µM | 7.02 µM | 28.8 µM | 14.3 µM | 27.5 µM | 5.14 µM | 19.2 µM | 4.97 µM | 25.6 µM | 11.7 µM | 23.9 µM | 4.1 µM | 20.2 µM | 2 µM | 6.21 µM | 14.7 µM | 33.3 µM | 14.3 µM | 36 µM
2 | CC[C@@]1(O)C(=O)OCc2c1cc1n(c2=O)Cc2cc3c(OC)cccc3nc2-1 |  | 1.89 µM | 0.00321 µM |  | 0.0229 µM | 0.311 µM | 0.00262 µM | 0.0456 µM and 0.106 µM | > 100 µM | > 100 µM | 0.00301 µM |  |  | > 60 µM |  | 1.35 µM | 0.0386 µM | 7.13 µM |  | > 100 µM
3 | O=C(CSc1nc2ccc([N+](=O)[O-])cc2[nH]1)Nc1ccc([N+](=O)[O-])cc1 | 1.88 µM | 8.1 µM | 2.81 µM | > 25.7 µM | 1.2 µM | 2.54 µM | 1.36 µM | 7.52 µM | 2.71 µM | 15.2 µM | 1.34 µM | 3.8 µM | 2.93 µM | 17.6 µM | 3.15 µM | > 46.4 µM | 2.78 µM | 12.9 µM | 2.46 µM | 8.19 µM
4 | O=P1(O)c2ccccc2CSCc2ccccc21 |  |  |  | > 100 µM |  | > 100 µM |  | > 100 µM |  | > 100 µM |  | > 100 µM |  | > 100 µM |  | > 100 µM |  | > 100 µM |  | > 100 µM
5 | COc1ccc(C(=O)O[C@@H]2CCN3CC[C@H](C)[C@H]23)cc1 |  |  |  | > 100 µM |  | > 100 µM |  | > 100 µM |  | > 100 µM |  | > 100 µM |  | > 100 µM |  | > 100 µM |  | > 100 µM |  | > 100 µM
6 | O=C1NC(=N[C@@H]2C[C@H]2c2ccccc2)S/C1=C\c1ccc2ncccc2c1 | 2.62 µM | 12.1 µM | 0.876 µM | 9.47 µM | 3.93 µM | 9.2 µM | 1.2 µM | 5.61 µM | 2.66 µM | 11.9 µM | 0.613 µM | 4.48 µM | 0.74 µM | > 25 µM | 0.646 µM | 3.27 µM | 4.33 µM | > 20.7 µM | 2.9 µM | 10.1 µM
7 | Cc1cccc2c1NC(=O)[C@@H](NC(=O)[C@H](CCC(F)(F)F)[C@H](CCC(F)(F)F)C(N)=O)N=C2c1cccc(F)c1 | 50 µM | > 100 µM | > 100 µM | > 100 µM | > 100 µM | > 100 µM | 28.2 µM | > 100 µM | 27.7 µM | > 100 µM | 36.6 µM | > 100 µM | > 100 µM | > 100 µM | 49.4 µM | > 100 µM | 86.4 µM | > 100 µM | 26.3 µM | > 100 µM
8 | N#CC1(C#N)C2C=CC(C3CC=CC32)C1(C#N)C#N (configuration not stated) | 6.13 µM | 6.16 µM and 13.1 µM |  | 2.87 µM | 8.61 µM | 15.6 µM |  | 16.9 µM |  | 16.5 µM |  | 16.9 µM | 13.2 µM | 4.17 µM and 35.9 µM | 7.6 µM | 7.12 µM and 17.6 µM |  | 16.8 µM |  | 33.4 µM
9 | CCOC(=O)Nc1ccc2c3c(cccc13)-c1ccccc1-2 |  |  |  |  | 3.96 µM | > 100 µM | 3.71 µM | > 100 µM | 1.98 µM | > 100 µM | 4.68 µM | > 100 µM | 4.32 µM | > 100 µM | 4.36 µM | > 100 µM | > 100 µM | > 100 µM | 4.32 µM | > 100 µM
10 | COc1c(O)cc2c(c1CC=C(C)C)OC(=O)c1c(cc(O)c(CC=C(C)C)c1O)O2 | 4.62 µM | 8.7 µM | 5.76 µM | 15.4 µM | 4.24 µM | 7.91 µM | 3.74 µM | 7.48 µM | 4.14 µM | 7.91 µM |  |  | 3.95 µM | 8.94 µM | 3.95 µM | 10.5 µM | 3.89 µM | 7.85 µM | 4.03 µM | 8.69 µM
11 | COc1ccc(-c2nc(Nc3ccc(F)cc3)nc(Nc3ccc4c(c3)nc(C)n4Cc3ccccc3)n2)cc1 | 4.32 µM | > 100 µM | 4.54 µM | > 100 µM | 3.2 µM | 24.2 µM | 6.66 µM | > 100 µM | 5.41 µM | > 100 µM | 2.39 µM | 62.4 µM | 2.95 µM | > 100 µM | 3.49 µM | 47.8 µM | 3.26 µM | 68.9 µM | 3.23 µM | 12.2 µM
12 | CC(=O)NS(=O)(=O)c1ccc(-n2nc(-c3ccccc3)cc2-c2cc(O)ccc2O)cc1 |  |  | 61.8 µM | > 100 µM | > 100 µM | > 100 µM | 62 µM | > 100 µM | > 100 µM | > 100 µM |  |  | > 100 µM | > 100 µM | > 100 µM | > 100 µM | > 100 µM | > 100 µM | > 100 µM | > 100 µM
13 | O=C1/C(=C\c2ccc(Cl)cc2)CN(C(=O)c2ccccc2)C/C1=C\c1ccc(Cl)cc1 | 9.17 µM | 51.7 µM | 6.58 µM | 66.2 µM | 2.39 µM | 6.78 µM | 1.86 µM | 4.55 µM | 3.22 µM | 9.78 µM | 23 µM | > 74 µM | 1.86 µM | 5.03 µM |  |  | 5.24 µM | 43.2 µM | 3.59 µM | 19.7 µM
14 | ClCCN(CCCl)c1ccc(OCc2ccccc2)cc1 | 10.2 µM | 34.4 µM | 1.84 µM | 23.7 µM | 6.62 µM | 20.6 µM |  |  | 7.03 µM | 64 µM | 3.54 µM | 19.5 µM | 5.11 µM | 84.1 µM | 0.395 µM | 15.5 µM | 29 µM | > 100 µM | 5.44 µM | > 100 µM
